Data published in patent publication US20240360178A1, “MACROCYCLIC IMMUNOMODULATORS” (Bristol-Myers Squibb Company, priority 2021, published 2024).
Positions of bridges follow the written chain, without caps; N, C: chain ends. Non-standard residues stand in square brackets, D forms with d. Residues, ends and D or L forms follow the SMILES beside them. Phe(4-COOH) = N[C@@H](Cc1ccc(C(=O)O)cc1)C(=O)O; Bip = N[C@@H](Cc1ccc(-c2ccccc2)cc1)C(=O)O; Phe(3-CN) = N#Cc1cccc(C[C@H](N)C(=O)O)c1; Phe(3-Cl) = N[C@@H](Cc1cccc(Cl)c1)C(=O)O; Phe(3-OMe) = COc1cccc(C[C@H](N)C(=O)O)c1; NMeY = CN[C@@H](Cc1ccc(O)cc1)C(=O)O; NMeF = CN[C@@H](Cc1ccccc1)C(=O)O; 4Pal = N[C@@H](Cc1ccncc1)C(=O)O; NMeA = CN[C@@H](C)C(=O)O; Nle = CCCC[C@H](N)C(=O)O; Orn = NCCC[C@H](N)C(=O)O; Dab = NCC[C@H](N)C(=O)O; Dap = NC[C@H](N)C(=O)O; Sar = CNCC(=O)O

Target: T1, human PD-1 (Jurkat-PD-1 cells) / PE-labeled human PD-L1-Ig (Homo sapiens, UniProt Q15116)
T1 construct: expressed in transfected cells; host or cells: Jurkat cell line over-expressing human PD-1
Experiment: Jurkat-PD-1 Cell Binding High-Content Screening Assay (CBA); Jurkat hPD1-PDL1 assay
Conditions: Jurkat cell line over-expressing human PD-1; PE-labeled PD-L1-Ig 20 nM final; compound incubated 2 hours at 37° C.; read-out: Jurkat HPD1-PDL1 IC50
Method in brief: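 Jurkat cells overexpressing human PD-1 (8×10^3 per well, DMEM with 10% FCS) were preincubated with compound for 2 hours at 37° C. PE-labeled human PD-L1-Ig was then added at 20 nM final. Binding was quantified by high-content imaging.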

T1 sequence (Q15116 25-288): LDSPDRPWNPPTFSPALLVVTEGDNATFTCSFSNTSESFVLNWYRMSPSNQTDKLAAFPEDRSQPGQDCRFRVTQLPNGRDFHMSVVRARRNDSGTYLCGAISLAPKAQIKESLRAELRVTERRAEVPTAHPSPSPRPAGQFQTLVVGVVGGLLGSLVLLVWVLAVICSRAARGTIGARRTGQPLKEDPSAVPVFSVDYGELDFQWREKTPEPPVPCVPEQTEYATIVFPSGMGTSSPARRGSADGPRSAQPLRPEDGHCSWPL

| Structure (SMILES) | IC50 [nM] |
| --- | --- |
| CCCC[C@@H]1NC(=O)CSC[C@@H](C(=O)NCC(N)=O)NC(=O)[C@H](CO)NC(=O)[C@H](C(C)C)NC(=O)[C@H](CC(C)C)NC(=O)[C@H](CC(N)=O)NC(=O)CN(C)C(=O)[C@H](C)N(C)C(=O)[C@H](C(C)C)NC(=O)[C@H](Cc2ccc(-c3ccccc3)cc2)NC(=O)[C@H](CC(C)C)NC(=O)[C@H](Cc2c[nH]c3ccccc23)NC(=O)[C@H](CC(=O)O)NC(=O)[C@H](Cc2ccc(O)cc2)NC1=O [Example 1100] ({CH2CO}-[Nle]YDWL[Bip]V[NMeA][Sar]NLVSCG-NH2; thioether N-14) | 310 |
| CC(C)C[C@@H]1NC(=O)CSC[C@@H](C(=O)NCC(N)=O)NC(=O)[C@H](CO)NC(=O)[C@H](C(C)C)NC(=O)[C@H](CC(C)C)NC(=O)[C@H](CCCNC(=N)N)NC(=O)[C@H](Cc2ccccc2)N(C)C(=O)[C@H](C)N(C)C(=O)[C@H](CCCNC(=N)N)NC(=O)[C@H](Cc2ccc(-c3ccccc3)cc2)NC(=O)[C@H](C(C)C)NC(=O)[C@H](Cc2c[nH]c3ccccc23)NC(=O)[C@H](CC(=O)O)NC(=O)[C@H](Cc2ccc(C(=O)O)cc2)NC1=O [Example 1295] ({CH2CO}-L[Phe(4-COOH)]DWV[Bip]R[NMeA][NMeF]RLVSCG-NH2; thioether N-14) | 210 |
| CC(C)C[C@@H]1NC(=O)[C@H](CCCNC(=N)N)NC(=O)[C@H](Cc2ccccc2)N(C)C(=O)[C@H](C)N(C)C(=O)[C@H](CCCNC(=N)N)NC(=O)[C@H](Cc2ccc(-c3ccccc3)cc2)NC(=O)[C@H](C(C)C)NC(=O)[C@H](Cc2c[nH]c3ccccc23)NC(=O)[C@H](CC(=O)O)NC(=O)[C@H](Cc2ccc(O)cc2)NC(=O)[C@H](Cc2ccccc2)NC(=O)CSC[C@@H](C(=O)NCC(N)=O)NC(=O)[C@H](CN)NC(=O)[C@H](C(C)C)NC1=O [Example 1330] ({CH2CO}-FYDWV[Bip]R[NMeA][NMeF]RLV[Dap]CG-NH2; thioether N-14) | 390 |
| CC(C)C[C@@H]1NC(=O)[C@H](CCN)NC(=O)[C@H](Cc2ccccc2)N(C)C(=O)[C@H](C)N(C)C(=O)[C@H](CCCN)NC(=O)[C@H](Cc2ccc(-c3ccccc3)cc2)NC(=O)[C@H](C(C)C)NC(=O)[C@H](Cc2c[nH]c3ccccc23)NC(=O)[C@H](CC(=O)O)NC(=O)[C@H](Cc2ccc(O)cc2)NC(=O)[C@H](Cc2ccccc2)NC(=O)CSC[C@@H](C(=O)N[C@@H](C)C(N)=O)NC(=O)[C@H]([C@@H](C)O)NC(=O)[C@H](C(C)C)NC1=O [Example 1341] ({CH2CO}-FYDWV[Bip][Orn][NMeA][NMeF][Dab]LVTCA-NH2; thioether N-14) | 200 |
| CC(C)C[C@@H]1NC(=O)[C@H](CCCNC(=N)N)NC(=O)[C@H](Cc2ccccc2)N(C)C(=O)[C@H](C)N(C)C(=O)[C@H](CCCNC(=N)N)NC(=O)[C@H](Cc2ccc(-c3ccccc3)cc2)NC(=O)[C@H](C(C)C)NC(=O)[C@H](Cc2c[nH]c3ccccc23)NC(=O)[C@H](CC(=O)O)NC(=O)[C@H](Cc2ccc(O)cc2)NC(=O)[C@H](Cc2ccccc2)NC(=O)CSC[C@@H](C(=O)NCC(N)=O)NC(=O)[C@H](CC(=O)O)NC(=O)[C@H](C(C)C)NC1=O [Example 1333] ({CH2CO}-FYDWV[Bip]R[NMeA][NMeF]RLVDCG-NH2; thioether N-14) | 680 |
| CC(C)C[C@@H]1NC(=O)[C@H](CCCNC(=N)N)NC(=O)[C@H](Cc2ccc(O)cc2)N(C)C(=O)[C@H](C)N(C)C(=O)[C@H](CCCNC(=N)N)NC(=O)[C@H](Cc2ccc(-c3ccccc3)cc2)NC(=O)[C@H](C(C)C)NC(=O)[C@H](Cc2c[nH]c3ccccc23)NC(=O)[C@H](CC(=O)O)NC(=O)[C@H](Cc2ccc(O)cc2)NC(=O)[C@H](Cc2ccccc2)NC(=O)CSC[C@@H](C(=O)NCC(N)=O)NC(=O)[C@H](CO)NC(=O)[C@H](C(C)C)NC1=O [Example 1280] ({CH2CO}-FYDWV[Bip]R[NMeA][NMeY]RLVSCG-NH2; thioether N-14) | 500 |
| CC(C)C[C@@H]1NC(=O)[C@H](Cc2c[nH]c3ccccc23)NC(=O)[C@H](CC(=O)O)NC(=O)[C@H](Cc2ccc(O)cc2)NC(=O)[C@H](Cc2ccc(O)cc2)NC(=O)CSC[C@@H](C(=O)NCC(N)=O)NC(=O)[C@H](CO)NC(=O)[C@H](C(C)C)NC(=O)[C@H](CC(C)C)NC(=O)[C@H](CC(N)=O)NC(=O)CN(C)C(=O)[C@H](C)N(C)C(=O)[C@H](C(C)C)NC(=O)[C@H](Cc2ccc(-c3ccccc3)cc2)NC1=O [Example 1152] ({CH2CO}-YYDWL[Bip]V[NMeA][Sar]NLVSCG-NH2; thioether N-14) | 740 |

Now those with a lower IC50, led by results:

| IC50 [nM] | Structure (SMILES) |
| --- | --- |
| 190 | CC(C)C[C@@H]1NC(=O)[C@H](Cc2c[nH]c3ccccc23)NC(=O)[C@H](CC(=O)O)NC(=O)[C@H](Cc2ccc(O)cc2)NC(=O)[C@H](CC(N)=O)NC(=O)CSC[C@@H](C(=O)N[C@@H](C)C(N)=O)NC(=O)[C@H](CO)NC(=O)[C@H](C(C)C)NC(=O)[C@H](CC(C)C)NC(=O)[C@H](CC(N)=O)NC(=O)[C@H]2CCCN2C(=O)[C@H](CCCN)NC(=O)[C@H](C(C)C)NC(=O)[C@H](Cc2ccc(-c3ccccc3)cc2)NC1=O [Example 1425] ({CH2CO}-NYDWL[Bip]V[Orn][dP]NLVSCA-NH2; thioether N-14) |
| 140 | CC(C)C[C@@H]1NC(=O)[C@H](Cc2cccc(Cl)c2)NC(=O)[C@H](CC(=O)O)NC(=O)[C@H](Cc2ccc(O)cc2)NC(=O)[C@H](Cc2ccccc2)NC(=O)CSC[C@@H](C(=O)N[C@@H](C)C(N)=O)NC(=O)[C@H](CO)NC(=O)[C@H](C(C)C)NC(=O)[C@H](CC(C)C)NC(=O)[C@H](CC(N)=O)NC(=O)CN(C)C(=O)[C@H](C)N(C)C(=O)[C@H](C(C)C)NC(=O)[C@H](Cc2ccc(-c3ccccc3)cc2)NC1=O [Example 1061] ({CH2CO}-FYD[Phe(3-Cl)]L[Bip]V[NMeA][Sar]NLVSCA-NH2; thioether N-14) |
| 150 | CC(C)C[C@@H]1NC(=O)[C@H](CCN)NC(=O)[C@H](Cc2ccccc2)N(C)C(=O)[C@H](C)N(C)C(=O)[C@H](CCCNC(=N)N)NC(=O)[C@H](Cc2ccc(-c3ccccc3)cc2)NC(=O)[C@H](C(C)C)NC(=O)[C@H](Cc2c[nH]c3ccccc23)NC(=O)[C@H](CC(=O)O)NC(=O)[C@H](Cc2ccc(O)cc2)NC(=O)[C@H](CC(N)=O)NC(=O)CSC[C@@H](C(=O)N[C@@H](C)C(N)=O)NC(=O)[C@H]([C@@H](C)O)NC(=O)[C@H](C(C)C)NC1=O [Example 1320] ({CH2CO}-NYDWV[Bip]R[NMeA][NMeF][Dab]LVTCA-NH2; thioether N-14) |
| 130 | CC(C)C[C@@H]1NC(=O)[C@H](CCCNC(=N)N)NC(=O)[C@H](Cc2ccccc2)N(C)C(=O)[C@H](C)N(C)C(=O)[C@H](CCCNC(=N)N)NC(=O)[C@H](Cc2ccc(-c3ccccc3)cc2)NC(=O)[C@H](C(C)C)NC(=O)[C@H](Cc2c[nH]c3ccccc23)NC(=O)[C@H](CC(=O)O)NC(=O)[C@H](Cc2ccc(O)cc2)NC(=O)[C@H](Cc2cnc[nH]2)NC(=O)CSC[C@@H](C(=O)NCC(N)=O)NC(=O)[C@H](CO)NC(=O)[C@H](C(C)C)NC1=O [Example 1058] ({CH2CO}-HYDWV[Bip]R[NMeA][NMeF]RLVSCG-NH2; thioether N-14) |
| 20 | COc1cccc(C[C@@H]2NC(=O)[C@H](CC(=O)O)NC(=O)[C@H](Cc3cccc(C#N)c3)NC(=O)[C@H](Cc3ccncc3)NC(=O)CSC[C@@H](C(=O)N[C@@H](C)C(N)=O)NC(=O)[C@H](CO)NC(=O)[C@H](C(C)C)NC(=O)[C@H](CC(C)C)NC(=O)[C@H](CC(N)=O)NC(=O)[C@H]3CCCN3C(=O)[C@H](C)N(C)C(=O)[C@H](C(C)C)NC(=O)[C@H](Cc3ccc(-c4ccccc4)cc3)NC(=O)[C@H](CC(C)C)NC2=O)c1 [Example 1388] ({CH2CO}-[4Pal][Phe(3-CN)]D[Phe(3-OMe)]L[Bip]V[NMeA][dP]NLVSCA-NH2; thioether N-14) |
